The source of these data is patent US9062028B2, “Bicyclic nitrogen containing heteroaryl TGR5 receptor modulators” (Bristol-Myers Squibb Company, priority 2011, dated 2015).

The structures appear in SMILES notation.

This experiment addresses T1, recombinant human TGR5 (Homo sapiens, UniProt Q8TDU6).
T1 construct: expressed in transfected cells
T1 sequence (Q8TDU6 1-330): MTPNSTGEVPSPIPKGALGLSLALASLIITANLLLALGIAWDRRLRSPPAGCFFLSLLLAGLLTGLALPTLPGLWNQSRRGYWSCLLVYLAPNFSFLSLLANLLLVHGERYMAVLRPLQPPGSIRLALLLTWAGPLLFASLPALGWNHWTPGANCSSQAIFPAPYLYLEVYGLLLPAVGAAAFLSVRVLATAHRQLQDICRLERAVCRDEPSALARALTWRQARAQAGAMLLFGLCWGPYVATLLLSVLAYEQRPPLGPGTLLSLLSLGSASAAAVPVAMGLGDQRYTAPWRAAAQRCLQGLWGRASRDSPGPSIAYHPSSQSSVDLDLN
Description: cAMP assay (cAMP accumulation, HTRF) in CHOK1 cells stably expressing TGR5. The class given is cell-based. Particulars: CHOK1 cells stably expressing human TGR5, 30 minutes at RT, 1% DMSO. The protocol: The in vitro modulation of recombinant human TGR5 was determined as follows.
A human TGR5 expression construct of human TGR5 was integrated into the genome of a CHOK1 cell line (Invitrogen). Once a stable CHOK1 cell line was generated, the cells were incubated for 5-10 minutes in culture medium consisting of F-12 (Invitrogen#11765-047) supplemented with 10% fetal bovine serum.
On the day of the cAMP accumulation assay, cells stably expressing the […] TGR5 construct were centrifuged at 1000 rpm for 5 minutes. The medium was aspirated and the cells were resuspended in 5 mL of assay buffer (phosphate-buffered saline with Ca^2+ and Mg^2+, Invitrogen#14040). The cells were counted using 1:2 dilution and then adjusted to 0.4-0.5×10^6 cells/mL in assay buffer, if necessary. Isobutylmethylxanthine (IBMX, Sigma#I5879) was added via a 1:5000 dilution to make a 0.1 mM final concentration and then 10 μL of the media were transferred to each well of a 384 well poly-D-lysine coated solid white plate (BD #35-6661) pre-dotted with 100 nL of with the desired concentration of compound added from a concentrated stock dissolved in dimethyl sulfoxide (DMSO) to give a final concentration of 1% DMSO in the assay. The plates were covered and incubated for 30 minutes at RT. cAMP accumulation was measured using the CisBio homogeneous time resolved fluorescence (HTRF) assay kit (#62AM2PEC) following the manufacturer's protocol. Briefly, 5 μl each of the cAMP-HTRF fluorescence detection reagents were added to each well, and the samples were incubated for at least one hour at room temperature. Fluorescence was excited at 320 nm and measured at 665 and 620 nm using the Envision instrument (Perkin Elmer), the fluorescence ratio of 665/620 was calculated and converted to nanomolar concentrations of cAMP in each well by interpolation from a cAMP standard curve. The concentration-response curves and EC50 values were calculated with a four parameter logistic curve fit equation utilizing Excel/XLfit software (Microsoft and IDBS). The EC50 value was calculated as the concentration of agonist which increased the cAMP concentration to a value halfway between the baseline and the maximum.
For orientation: Cyclic AMP is a second messenger, typically raised through Gs and lowered through Gi signalling.
In general, EC50 refers to the concentration giving half of the maximal effect. As to `Cc1cccc(OCCCC(=O)N2C[C@@H]3C[C@@H]3c3c(-c4cnn(Cc5cccc(C(=O)NCS(=O)(=O)O)c5)c4)cccc32)c1C` (single isomer, unassigned) [Example 238], the EC50 was found to be 59 nM.

Consider `Cc1cccc(OCCCC(=O)N2C[C@@H]3C[C@@H]3c3c(-c4cnn(Cc5cccc(C(=O)NCCS(=O)(=O)O)c5)c4)cccc32)c1C` (single isomer, unassigned) [Example 240], for which the EC50 amounted to 49 nM.

`Cc1c(Cl)cccc1OCCCC(=O)N1C[C@@H]2C[C@@H]2c2c(-c3cnn(Cc4cccc(C(=O)NCS(=O)(=O)O)c4)c3)cccc21` (single isomer, unassigned) [Example 242]: the EC50 came to 49 nM.

Consider `Cc1c(Cl)cccc1OCCCC(=O)N1C[C@@H]2C[C@@H]2c2c(-c3cnn(Cc4cccc(C(=O)NCC(=O)O)c4)c3)cccc21` (single isomer, unassigned) [Example 244], for which the EC50 amounted to 46 nM.

For the compound `Cc1cccc(OCCCC(=O)N2C[C@@H]3C[C@@H]3c3c(-c4cnn(Cc5cccc(NC(=O)NCCC(=O)O)c5)c4)cccc32)c1C` (single isomer, unassigned) [Example 248], the EC50 came to 56 nM.

For `Cc1cccc(OCCCC(=O)N2C[C@H]3C[C@H]3c3c(-c4cnn(Cc5cccc(NC(=O)NCCC(=O)O)c5)c4)cccc32)c1C` (single isomer, unassigned) [Example 249], the EC50 was 660 nM.

With `Cc1cccc(OCCCC(=O)N2C[C@@H]3C[C@@H]3c3c(-c4cnn(Cc5cccc(NC(=O)NCC(=O)O)c5)c4)cccc32)c1C` (single isomer, unassigned) [Example 250], the EC50 is 29 nM.

On to `Cc1cccc(OCCCC(=O)N2C[C@H]3C[C@H]3c3c(-c4cnn(Cc5cccc(NC(=O)NCC(=O)O)c5)c4)cccc32)c1C` (single isomer, unassigned) [Example 251], for which the EC50 is 644 nM.

As to `Cc1cccc(CCOCC(=O)N2CCCc3c(-c4cnn(Cc5cccc(C(=O)O)c5)c4)cccc32)c1C` [Example 15, 3-((4-(1-(2-(2,3-Dimethylphenethoxy)acetyl)-1,2,3,4-tetrahydroquinolin-5-yl)-1H-pyrazol-1-yl)methyl)benzoic acid], the EC50 was determined as 5900 nM.

For the compound `Cc1cccc(OCCOC(=O)N2CCOc3c(-c4cnn(Cc5ccc(C(=O)O)cc5)c4)cccc32)c1C` [Example 28, 4-((4-(4-((2-(2,3-Dimethylphenoxy)ethoxy)carbonyl)-3,4-dihydro-2H-benzo[b][1,4]oxazin-8-yl)-1H-pyrazol-1-yl)methyl)benzoic acid], the EC50 came to 2860 nM.

As for `Cc1cccc(OCCOC(=O)N2CCOc3c(-c4cnn(Cc5cccc(C(=O)O)c5)c4)cccc32)c1C` [Example 29, 3-((4-(4-((2-(2,3-Dimethylphenoxy)ethoxy)carbonyl)-3,4-dihydro-2H-benzo[b][1,4]oxazin-8-yl)-1H-pyrazol-1-yl)methyl)benzoic acid], the EC50 was found to be 596 nM.

In the case of `Cc1c(OCCCC(=O)N2CCCc3c(-c4cnn(Cc5cccc(C(=O)O)c5)c4)cccc32)cccc1C(F)(F)F` [Example 32, 3-((4-(1-(4-(2-Methyl-3-(trifluoromethyl)phenoxy)butanoyl)-1,2,3,4-tetrahydroquinolin-5-yl)-1H-pyrazol-1-yl)methyl)benzoic acid], the EC50 came out at 586 nM.

Turning to `O=C(O)c1cccc(Cn2cc(-c3cccc4c3C3CC3CN4C(=O)OCCOc3c(F)cccc3F)cn2)c1` (stereo not shown) [Example 32A, 3-((4-(3-((2-(2,6-Difluorophenoxy)ethoxy)carbonyl)-1a,2,3,7b-tetrahydro-1H-cyclopropa[c]quinolin-7-yl)-1H-pyrazol-1-yl)methyl)benzoic acid], the EC50 was 3400 nM.

Consider `Cc1cccc(OCCCC(=O)N2CCCc3c(-c4cn(Cc5cccc(C(=O)O)c5)nc4C)cccc32)c1C` [Example 32G, 3-((4-(1-(4-(2,3-Dimethylphenoxy)butanoyl)-1,2,3,4-tetrahydroquinolin-5-yl)-3-methyl-1H-pyrazol-1-yl)methyl)benzoic acid], for which the EC50 turned out to be 636 nM.

As for `Cc1cccc(OCCCC(=O)N2CCCc3c(-c4cccc(COC(=O)N(CCCS(=O)(=O)O)C5CC5)c4)cccc32)c1C` [Example 36, 3-(Cyclopropyl((3-(1-(4-(2,3-dimethylphenoxy)butanoyl)-1,2,3,4-tetrahydroquinolin-5-yl)benzyloxy)carbonyl)amino)propane-1-sulfonic acid], the EC50 stood at 2910 nM.

With `Cc1cccc(OCCCC(=O)N2CCCc3c(-c4cccc(COC(=O)NCCC(=O)O)c4)cccc32)c1C` [Example 43, 3-((3-(1-(4-(2,3-Dimethylphenoxy)butanoyl)-1,2,3,4-tetrahydroquinolin-5-yl)benzyloxy)carbonylamino)propanoic acid], the EC50 was found to be 611 nM.

Regarding `Cc1cccc(OCCCC(=O)N2CCCc3c(-c4csc(COC(=O)NCCC(=O)O)n4)cccc32)c1C` [Example 46, 3-(((4-(1-(4-(2,3-Dimethylphenoxy)butanoyl)-1,2,3,4-tetrahydroquinolin-5-yl)thiazol-2-yl)methoxy)carbonylamino)propanoic acid], the EC50 stood at 1920 nM.

Turning to `Cc1cccc(OCCCC(=O)N2CC3CC3c3c(-c4cnn(Cc5c(F)cc(C(=O)NCS(=O)(=O)O)cc5Cl)c4)cccc32)c1C` (stereo not shown) [Example 69B, (3-Chloro-4-((4-(3-(4-(2,3-dimethylphenoxy)butanoyl)-1a,2,3,7b-tetrahydro-1H-cyclopropa[c]quinolin-7-yl)-1H-pyrazol-1-yl)methyl)-5-fluorobenzamido)methanesulfonic acid], the EC50 worked out at 50 nM.

On to `Cc1cccc(OCCCC(=O)N2CC3CC3c3c(-c4cnn(Cc5c(F)cc(C(=O)NCCS(=O)(=O)O)cc5Cl)c4)cccc32)c1C` (stereo not shown) [Example 69C, 2-(3-Chloro-4-((4-(3-(4-(2,3-dimethylphenoxy)butanoyl)-1a,2,3,7b-tetrahydro-1H-cyclopropa[c]quinolin-7-yl)-1H-pyrazol-1-yl)methyl)-5-fluorobenzamido)ethanesulfonic acid], for which the EC50 stood at 58 nM.

Consider `Cc1cccc(OCCCC(=O)N2CC3CC3c3c(-c4cnn(Cc5c(F)cc(C(=O)NCCC(=O)O)cc5Cl)c4)cccc32)c1C` (stereo not shown) [Example 69E, 3-(3-Chloro-4-((4-(3-(4-(2,3-dimethylphenoxy)butanoyl)-1a,2,3,7b-tetrahydro-1H-cyclopropa[c]quinolin-7-yl)-1H-pyrazol-1-yl)methyl)-5-fluorobenzamido)propanoic acid], for which the half-maximal effective concentration (EC50) was 45 nM.

On to `Cc1cccc(OCCCC(=O)N2CC3CC3c3c(-c4cnn(Cc5c(F)cc(C(=O)NCCC[C@H](NC(=N)N)C(=O)O)cc5Cl)c4)cccc32)c1C` (stereo partly drawn) [Example 69F, (2S)-5-(3-Chloro-4-((4-(3-(4-(2,3-dimethylphenoxy)butanoyl)-1a,2,3,7b-tetrahydro-1H-cyclopropa[c]quinolin-7-yl)-1H-pyrazol-1-yl)methyl)-5-fluorobenzamido)-2-guanidinopentanoic acid], for which the EC50 stood at 54 nM.

As to `Cc1cccc(OCCCC(=O)N2CC3CC3c3c(-c4cnn(Cc5cccc(N)c5)c4)cccc32)c1C` (stereo not shown) [Example 69G, 1-(7-(1-(3-Aminobenzyl)-1H-pyrazol-4-yl)-1a,2-dihydro-1H-cyclopropa[c]quinolin-3(7bH)-yl)-4-(2,3-dimethylphenoxy)butan-1-one], the EC50 turned out to be 51 nM.

In the case of `Cc1cccc(OCCCC(=O)N2CC3CC3c3c(-c4cnn(Cc5cc(C(=O)O)ccc5Cl)c4)cccc32)c1C` (stereo not shown) [Example 69H, 4-Chloro-3-((4-(3-(4-(2,3-dimethylphenoxy)butanoyl)-1a,2,3,7b-tetrahydro-1H-cyclopropa[c]quinolin-7-yl)-1H-pyrazol-1-yl)methyl)benzoic acid], the EC50 was determined as 52 nM.

For `Cc1cccc(OCCCC(=O)N2CCCc3c(-c4cnn(CC5(CNC(=O)NCCS(=O)(=O)O)CC5)c4)cccc32)c1C` [Example 69J, 2-(3-((1-((4-(1-(4-(2,3-Dimethylphenoxy)butanoyl)-1,2,3,4-tetrahydroquinolin-5-yl)-1H-pyrazol-1-yl)methyl)cyclopropyl)methyl)ureido)ethanesulfonic acid], the EC50 was found to be 5000 nM.

Turning to `Cc1cccc(OCCCC(=O)N2CCCc3c(-c4cnn(C(C)c5cccc(NC(=O)NCS(=O)(=O)O)c5)c4)cccc32)c1C` (stereo not shown) [Example 81, (3-(3-(1-(4-(1-(4-(2,3-Dimethylphenoxy)butanoyl)-1,2,3,4-tetrahydroquinolin-5-yl)-1H-pyrazol-1-yl)ethyl)phenyl)ureido)methanesulfonic acid], the EC50 came out at 670 nM.
